The results in this text go back to patent publication US6350596B2, “Method for producing L-phenylalanine” (Ajinomoto Co., Inc., priority 2000, dated 2002).

For test [1], the system named is Methylophilus methylotrophus pFp^R phe^R mutant strain No. 227-16. Type of test: cell-based. The text has this:
The new mutants which were resistant to 1 g/L of meta-fluorophenylalanine (hereinafter abbreviated to mFp^R) were isolated from the strain No. 227-16 after NG-mutagenesis as it was described above.

Test [2] relates to Methylophilus methylotrophus AS-1 (NCIB 10515; ATCC 53528). In words: Sensitivity of the wild type strain to phenylalanine analogs on 121(Fe2)-agar medium. The class given is cell-based. Particulars: for amount at which the wild type strain (strain AS-1) can not grow: usually, under the conditions described in Examples. From the text:
To be resistant to an phenylalanine analog means that the bacterium can grow in the presence of the phenylalanine analog in the amount at which the wild type strain (for example, strain AS-1) can not grow. The amount varies depending on the kinds of the phenylalanine analog.
To be resistant to L-phenylalanine means that the bacterium can grow in the presence of L-phenylalanine in the amount at which the wild type strain (for example, strain AS-1) can not grow. The amount is usually 8 g/l under the conditions described in Examples mentioned below.
To be resistant to cinnamic acid means that the bacterium can grow in the presence of cinnamic acid in the amount at which the wild type strain (for example, strain AS-1) can not grow. The amount is usually 50 mg/l under the conditions described in Examples mentioned below.
The 10^8 c.f.u./ml of M. methylotrophus bacteria were plated and grown at +30° C. for 3 days. […] The several crystals of N-methyl-N′-nitro-N-nitrosoguanidin (hereinafter abbreviated to NG) mutagen was placed in the middle of the plate. After 4-5 days at 30° C., the plates were analyzed.

Test [3] deals with M. methylotrophus pFp^R mutant No. 227. In words: Growth of pFp^R mutant on agarized 121-medium with L-phenylalanine. The class given is cell-based, Methylophilus methylotrophus. To be noted: added into the agarized 121-medium.

With `N[C@@H](Cc1cccc(F)c1)C(=O)O` [m-fluorophenylalanine], the “growth of the strain in the presence of the analog” value in test [1] (strain No. 227-16, 1 g/l of the analog) was “only a slight growth”. Further, the “amount at which the wild type strain (strain AS-1) can not grow” value (shortened to “amount … (strain AS-1) can not grow”) in test [2] is 1 g/L.
In the case of `N[C@@H](Cc1ccccc1)C(=O)O` [L-phenylalanine], the “concentration to which the strain was resistant” value in test [1] (strain No. 227-16) came to 0.05 M. The “amount … (strain AS-1) can not grow” value in test [2] was 8 g/L. Also, the “concentration that totally inhibited the growth” value in test [3] was 0.1 M.
As for `NC(Cc1ccc(F)cc1)C(=O)O` (racemic) [DL-p-fluorophenylalanine], the “concentration that totally inhibited the growth of the bacteria lawn” value in test [2] (121(Fe2)-agar medium, 10^8 c.f.u./ml plated, +30° C., 3 days) is 1 mg/mL. The “amount … (strain AS-1) can not grow” value in test [2] came to 2 g/L.
As to `O=C(O)C=Cc1ccccc1` [cinnamic acid], in test [2], the “amount … (strain AS-1) can not grow” value was found to be 0.05 g/L.
